Measured values: patent US10766869B2, “Triazoles for the treatment of demyelinating dieases” (Vertex Pharmaceuticals Incorporated, priority 2015, dated 2020)

Tested on: primary rat mixed cortical cells
Assay: In vitro myelination assay (MBP positive myelin strands, fold myelin pixels above background)
Format: cell-based
Details: Rattus norvegicus, read-out: Fold myelin pixels above background relative to baseline of no added compound; for fold induction at 1 µM: 1.0 μM compound; for fold induction at 10 µM: 10.0 μM compound
How it was run: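 Compounds at 1.0 and 10.0 μM were incubated 14 days with dissociated P1 rat cortical cells, which were then fixed and immunostained for MBP. Myelination was scored as fold MBP myelin pixels per well over the no-compound baseline.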

| SMILES | fold induction at 1 µM | fold induction at 10 µM |
| --- | --- | --- |
| CCN(CC)C(=O)C1CN(c2cc(C)cc(Nc3ncn(-c4cc(F)cc(F)c4)n3)c2)C1 [Compound 817, 1-[3-[[1-(3,5-difluorophenyl)-1,2,4-triazol-3-yl]amino]-5-methyl-phenyl]-N,N-diethyl-azetidine-3-carboxamide] | 10 to 100 | 10 to 100 |
| Cc1cc(Nc2ncn(-c3cnccn3)n2)cc(N2CCCN(C3COC3)CC2)c1 [Compound 818, N-[3-methyl-5-[4-(oxetan-3-yl)-1,4-diazepan-1-yl]phenyl]-1-pyrazin-2-yl-1,2,4-triazol-3-amine] | 10 to 100 | 100 to 1000 |
| Fc1cc(-n2cnc(Nc3cc(Cl)cc(N4CC(N5CCOCC5)C4)c3)n2)ccn1 [Compound 819, N-[3-chloro-5-(3-morpholinoazetidin-1-yl)phenyl]-1-(2-fluoro-4-pyridyl)-1,2,4-triazol-3-amine] | 10 to 100 | 1 to 10 |
| Cc1cc(Nc2ncn(-c3cc(F)cc(F)c3)n2)c(C)c(N2CC(N3CCOCC3)C2)c1 [Compound 820, 1-(3,5-difluorophenyl)-N-[2,5-dimethyl-3-(3-morpholinoazetidin-1-yl)phenyl]-1,2,4-triazol-3-amine] | 1 to 10 | 10 to 100 |
| Cc1cc(Nc2ncn(-c3cc(F)cc(F)c3)n2)nc(N2CC(C#N)C2)c1 [Compound 821, 1-[6-[[1-(3,5-difluorophenyl)-1,2,4-triazol-3-yl]amino]-4-methyl-2-pyridyl]azetidine-3-carbonitrile] | ≤ 1 | 10 to 100 |
| Cc1cc(Nc2ncn(-c3cc(F)cc(F)c3)n2)cc(N2C[C@@H]3C[C@H]2CO3)c1 [Compound 822, 1-(3,5-difluorophenyl)-N-[3-methyl-5-[(1S,4S)-2-oxa-5-azabicyclo[2.2.1]heptan-5-yl]phenyl]-1,2,4-triazol-3-amine] | 10 to 100 | ≤ 1 |
| CC1(N2CCN(c3cc(C(F)F)cc(Nc4ncn(-c5cccc(F)c5)n4)n3)CC2)COC1 [Compound 823, 4-(difluoromethyl)-N-[1-(3-fluorophenyl)-1,2,4-triazol-3-yl]-6-[4-(3-methyloxetan-3-yl)piperazin-1-yl]pyridin-2-amine] | 10 to 100 | 10 to 100 |
| COCCN(C)C(=O)C1CN(c2cc(C)cc(Nc3ncn(-c4cc(F)cc(F)c4)n3)c2)C1 [Compound 824, 1-[3-[[1-(3,5-difluorophenyl)-1,2,4-triazol-3-yl]amino]-5-methyl-phenyl]-N-(2-methoxyethyl)-N-methyl-azetidine-3-carboxamide] | 10 to 100 | 1 to 10 |
| Cc1cc(Nc2ncn(-c3cnccn3)n2)cc(N2CC(N3CCCOCC3)C2)c1 [Compound 825, N-[3-methyl-5-[3-(1,4-oxazepan-4-yl)azetidin-1-yl]phenyl]-1-pyrazin-2-yl-1,2,4-triazol-3-amine] | 10 to 100 | 10 to 100 |
| Fc1cccc(-n2cnc(Nc3cc(Cl)cc(N4CC(N5CCOCC5)C4)c3)n2)c1 [Compound 827, N-[3-chloro-5-(3-morpholinoazetidin-1-yl)phenyl]-1-(3-fluorophenyl)-1,2,4-triazol-3-amine] | 10 to 100 | 1 to 10 |
| Cc1cc(Nc2ccn(C)n2)cc(Nc2ncn(-c3ccccc3)n2)c1 [Compound 828, 5-methyl-N3-(1-methylpyrazol-3-yl)-N1-(1-phenyl-1,2,4-triazol-3-yl)benzene-1,3-diamine] | 1 to 10 | ≤ 1 |
| CCc1cc(Nc2ncn(-c3ccc(F)c(C)c3)n2)cc(N2CCN(C3COC3)CC2)c1 [Compound 829, N-[3-ethyl-5-[4-(oxetan-3-yl)piperazin-1-yl]phenyl]-1-(4-fluoro-3-methyl-phenyl)-1,2,4-triazol-3-amine] | 1 to 10 | ≤ 1 |
| CC(C)Oc1cc(Nc2ncn(-c3cc(F)cc(F)c3)n2)cc(N2CC(N3CCOCC3)C2)c1 [Compound 830, 1-(3,5-difluorophenyl)-N-[3-isopropoxy-5-(3-morpholinoazetidin-1-yl)phenyl]-1,2,4-triazol-3-amine] | 100 to 1000 | 10 to 100 |
| Cc1cc(Nc2ncn(-c3cc(F)cc(F)c3)n2)cc(N2CCN3CC(F)(F)C[C@H]3C2)c1 [Compound 831, N-[3-[(8aS)-7,7-difluoro-13,4,6,8,8a-hexahydropyrrolo[1,2-a]pyrazin-2-yl]-5-methyl-phenyl]-1-(3,5-difluorophenyl)-1,2,4-triazol-3-amine] | 10 to 100 | 10 to 100 |
| Cc1cc(Nc2ncn(-c3cc(F)cc(F)c3)n2)cc(OCCn2cccn2)c1 [Compound 832, 1-(3,5-difluorophenyl)-N-[3-methyl-5-(2-pyrazol-1-ylethoxy)phenyl]-1,2,4-triazol-3-amine] | 10 to 100 | 10 to 100 |
| Cc1cc(Nc2ncn(-c3cccc(C(F)F)c3)n2)cc(N2CCN(C3COC3)CC2)c1 [Compound 833, 1-[3-(difluoromethyl)phenyl]-N-[3-methyl-5-[4-(oxetan-3-yl)piperazin-1-yl]phenyl]-1,2,4-triazol-3-amine] | 1 to 10 | ≤ 1 |
| Cc1cc(CN2CCN(C3COC3)CC2)c(F)c(Nc2ncn(-c3ccc(F)c(F)c3)n2)c1 [Compound 834, 1-(3,4-difluorophenyl)-N-[2-fluoro-5-methyl-3-[[4-(oxetan-3-yl)piperazin-1-yl]methyl]phenyl]-1,2,4-triazol-3-amine] | 1 to 10 | 1 to 10 |
| N#Cc1cc(Nc2ncn(-c3cc(F)cc(F)c3)n2)cc(N2CCOCC2)c1 [Compound 835, 3-[[1-(3,5-difluorophenyl)-1,2,4-triazol-3-yl]amino]-5-morpholino-benzonitrile] | 1 to 10 | 10 to 100 |
| Cc1cc(Nc2ncn(-c3ccc(C)c(F)c3)n2)cc(N2CCN(C3COC3)CC2)c1 [Compound 836, 1-(3-fluoro-4-methyl-phenyl)-N-[3-methyl-5-[4-(oxetan-3-yl)piperazin-1-yl]phenyl]-1,2,4-triazol-3-amine] | 1 to 10 | 1 to 10 |
| Cc1cc(Nc2ncn(-c3cccc(C(F)(F)F)c3)n2)nc(N2CCOCC2)c1 [Compound 837, 4-methyl-6-morpholino-N-[1-[3-(trifluoromethyl)phenyl]-1,2,4-triazol-3-yl]pyridin-2-amine] | 1 to 10 | 10 to 100 |
| Cc1cc(Nc2ncn(-c3ccccc3)n2)cc(Nc2ncco2)c1 [Compound 838, 5-methyl-N1-oxazol-2-yl-N3-(1-phenyl-1,2,4-triazol-3-yl)benzene-1,3-diamine] | ≤ 1 | ≤ 1 |
| COCC1CCN(c2cc(C(F)(F)F)cc(Nc3ncn(-c4cc(F)cc(F)c4)n3)n2)CC1 [Compound 839, N-[1-(3,5-difluorophenyl)-1,2,4-triazol-3-yl]-6-[4-(methoxymethyl)-1-piperidyl]-4-(trifluoromethyl)pyridin-2-amine] | 1 to 10 | ≤ 1 |
| Cc1cc(CN2CCN(C3COC3)CC2)cc(Nc2ncn(-c3ccc(F)c(F)c3)n2)c1 [Compound 840, 1-(3,4-difluorophenyl)-N-[3-methyl-5-[[4-(oxetan-3-yl)piperazin-1-yl]methyl]phenyl]-1,2,4-triazol-3-amine] | 10 to 100 | 10 to 100 |
| COc1ccc(-n2cnc(Nc3cc(C)cc(N4CC(N5CCOCC5)C4)c3)n2)cc1 [Compound 841, 1-(4-methoxyphenyl)-N-[3-methyl-5-(3-morpholinoazetidin-1-yl)phenyl]-1,2,4-triazol-3-amine] | 1 to 10 | 10 to 100 |
| N#Cc1cc(Nc2ncn(-c3cccnc3)n2)cc(N2CCN(C3COC3)CC2)c1 [Compound 842, 3-[4-(oxetan-3-yl)piperazin-1-yl]-5-[[1-(3-pyridyl)-1,2,4-triazol-3-yl]amino]benzonitrile] | 1 to 10 | ≤ 1 |
| Cc1cc(Nc2ncn(-c3cc(F)cc(F)c3)n2)nc(N2CC3CCOC3C2)c1 (stereo not drawn) [Compound 843, 6-(2,3,3a,4,6,6a-hexahydrofuro[2,3-c]pyrrol-5-yl)-N-[1-(3,5-difluorophenyl)-1,2,4-triazol-3-yl]-4-methyl-pyridin-2-amine] | 1 to 10 | 1 to 10 |
| Cc1cc(Nc2ncn(-c3ccc(F)c(F)c3)n2)cc(OCCN2CCOCC2)c1 [Compound 845, 1-(3,4-difluorophenyl)-N-[3-methyl-5-(2-morpholinoethoxy)phenyl]-1,2,4-triazol-3-amine] | 10 to 100 | 1 to 10 |
| Cc1cc(Nc2ncn(-c3cnccn3)n2)cc(C2(C)CN(C)C(=O)O2)c1 (stereo not drawn) [Compound 846, 3,5-dimethyl-5-[3-methyl-5-[(1-pyrazin-2-yl-1,2,4-triazol-3-yl)amino]phenyl]oxazolidin-2-one] | 10 to 100 | 1 to 10 |
| Fc1cc(F)cc(-n2cnc(Nc3cc(N4CCN(C5COC5)CC4)cc(F)n3)n2)c1 [Compound 847, N-[1-(3,5-difluorophenyl)-1,2,4-triazol-3-yl]-6-fluoro-4-[4-(oxetan-3-yl)piperazin-1-yl]pyridin-2-amine] | 1 to 10 | 1 to 10 |
| Cc1cc(Nc2ncn(-c3cccc(C(F)F)c3)n2)nc(N2CCN(C3COC3)CC2)c1 [Compound 848, N-[1-[3-(difluoromethyl)phenyl]-1,2,4-triazol-3-yl]-4-methyl-6-[4-(oxetan-3-yl)piperazin-1-yl]pyridin-2-amine] | 10 to 100 | 10 to 100 |
